The results in this text go back to ChEMBL document CHEMBL1156900, “Synthesis and anti-influenza virus activity of dihydrofuran-fused perhydrophenanthrenes with a benzyloxy-type side-chain” (2010).

SMILES strings stand for the structures. The source made the active and inactive calls. The rule behind the calls is not given here.

The first assay has as its system H3N2 subtype. Briefly: Antiviral activity against influenza A virus A/Aichi/2/68 (H3N2) infected in MDCK cells at 10 uM by plaque titration assay relative to control. The assay is classed as functional, A/Aichi/2/1968(H3N2).
Settings: not given
Regarding `N#C[C@]12CCC3(OCCO3)C3=CO[C@H](Cc4cc(OCc5cc(F)cc(F)c5)ccc41)[C@@H]32`, the Activity was determined as 30%.

`N#C[C@]12CCC3(OCCO3)C3=CO[C@H](Cc4cc(OCc5ccccc5)ccc41)[C@@H]32` returned an Activity of 30%.

In turn, `N#C[C@]12CCC3(OCCO3)C3=CO[C@H](Cc4cc(-c5ccccc5)ccc41)[C@@H]32` gave an Activity of 70%.

As to `N#C[C@]12CCC3(OCCO3)C3=CO[C@H](Cc4cc(-c5c(F)cc(F)cc5F)ccc41)[C@@H]32`, the Activity came to 70%.

The same assay, now with this note: A/Aichi/2/1968(H3N2).
For the molecule `N#C[C@]12CCC3(OCCO3)C3=CO[C@H](Cc4cc(OCc5ccccn5)ccc41)[C@@H]32`, the result was Active.

With `N#C[C@]12CCC3(OCCO3)C3=CO[C@H](Cc4cc(OCc5ccncc5)ccc41)[C@@H]32`, the outcome was Active.

In the case of `N#C[C@]12CCC3(OCCO3)C3=CO[C@H](Cc4cc(OCc5ccc(COc6ccc7c(c6)C[C@H]6OC=C8[C@H]6[C@@]7(C#N)CCC86OCCO6)cc5)ccc41)[C@@H]32`, the outcome was Active.

Regarding `N#C[C@]12CCC3(OCCO3)C3=CO[C@H](Cc4cc(OCc5cccnc5)ccc41)[C@@H]32`, the result was Active.

Take `N#C[C@]12CCC3(OCCO3)C3=CO[C@H](Cc4cc(OC(F)(F)F)ccc41)[C@@H]32`: the result was Active.

As to `N#C[C@]12CCC3(OCCO3)C3=CO[C@H](Cc4cc(OS(=O)(=O)C(F)(F)F)ccc41)[C@@H]32`, the result was inactive.
